In US20260137703A1, “2-AMINO-PYRIDO[2,3-D]PYRIMIDIN-7(8H)-ONE AND 7-AMINO-1-PYRIMIDO[4,5-D]PYRIMIDIN-2(1 H)-ONE DERIVATIVES AS EGFR INHIBITORS FOR THE TREATMENT OF CANCER” (Cancer Research Technology Limited, priority 2022, published 2026):

Legend:
[1] = biological target: CtermHisTag-mEGFR Wild type (Homo sapiens, UniProt P00533); assay: biochemical
[2] = biological target: T1, Phospho-EGFR (Tyr1068) in H1975 cells (Homo sapiens, UniProt P00533, L858R/T790M); assay: HTRF pEGFR/total EGFR in H1975 cells; type: cell-based; conditions: ratio pEGFR/total EGFR, compound 3 hours
T1 construct: host or cells: H1975
Procedure, shortened: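 Readout is the phospho-EGFR (Tyr1068) to total EGFR HTRF ratio, expressed relative to 0 μM control. Adhered H1975 cells were exposed to compound for 3 hours at 0.1% DMSO, duplicate wells, then lysed for 30 min at room temperature before two-wavelength fluorescence reading.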

[3] = biological target: T2, Phospho-EGFR (Tyr1068) in A431 cells (Homo sapiens, UniProt P00533); assay: HTRF pEGFR/total EGFR in A431 cells with EGF stimulation; type: cell-based; conditions: ratio pEGFR/total EGFR, compound 2.5 hours then 100 ng/ml EGF 30 mins
T2 construct: endogenous in cells; host or cells: A431
Procedure, shortened: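 Values are pEGFR(Tyr1068)/total EGFR HTRF ratios (665/620 nm) given as percent of the 0 μM control. Adhered A431 cells (20,000 per well, 24 h) had 2.5 h compound pretreatment in 0.1% DMSO, then 30 min of 100 ng/ml EGF before lysis.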

[4] = biological target: T3, Phospho-EGFR (Tyr1068) in H1975 C797S cells (CRISPR-edited EGFR C797S) (Homo sapiens, UniProt P00533, C797S/L858R/T790M); assay: HTRF pEGFR/total EGFR in H1975 C797S cells; type: cell-based; conditions: ratio pEGFR/total EGFR, compound 3 hours
T3 construct: host or cells: H1975 C797S (CRISPR-edited)
Procedure, shortened: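 Readout is the HTRF-measured Tyr1068 phospho-EGFR to total EGFR ratio, normalised to the 0 μM control as percent. Preceding this, CRISPR-edited H1975 C797S cells, plated 24 h earlier, were exposed 3 h to duplicate compound doses in medium with 0.1% DMSO, then lysed on a shaker.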

T1 sequence (P00533 25-1210 T790M/L858R): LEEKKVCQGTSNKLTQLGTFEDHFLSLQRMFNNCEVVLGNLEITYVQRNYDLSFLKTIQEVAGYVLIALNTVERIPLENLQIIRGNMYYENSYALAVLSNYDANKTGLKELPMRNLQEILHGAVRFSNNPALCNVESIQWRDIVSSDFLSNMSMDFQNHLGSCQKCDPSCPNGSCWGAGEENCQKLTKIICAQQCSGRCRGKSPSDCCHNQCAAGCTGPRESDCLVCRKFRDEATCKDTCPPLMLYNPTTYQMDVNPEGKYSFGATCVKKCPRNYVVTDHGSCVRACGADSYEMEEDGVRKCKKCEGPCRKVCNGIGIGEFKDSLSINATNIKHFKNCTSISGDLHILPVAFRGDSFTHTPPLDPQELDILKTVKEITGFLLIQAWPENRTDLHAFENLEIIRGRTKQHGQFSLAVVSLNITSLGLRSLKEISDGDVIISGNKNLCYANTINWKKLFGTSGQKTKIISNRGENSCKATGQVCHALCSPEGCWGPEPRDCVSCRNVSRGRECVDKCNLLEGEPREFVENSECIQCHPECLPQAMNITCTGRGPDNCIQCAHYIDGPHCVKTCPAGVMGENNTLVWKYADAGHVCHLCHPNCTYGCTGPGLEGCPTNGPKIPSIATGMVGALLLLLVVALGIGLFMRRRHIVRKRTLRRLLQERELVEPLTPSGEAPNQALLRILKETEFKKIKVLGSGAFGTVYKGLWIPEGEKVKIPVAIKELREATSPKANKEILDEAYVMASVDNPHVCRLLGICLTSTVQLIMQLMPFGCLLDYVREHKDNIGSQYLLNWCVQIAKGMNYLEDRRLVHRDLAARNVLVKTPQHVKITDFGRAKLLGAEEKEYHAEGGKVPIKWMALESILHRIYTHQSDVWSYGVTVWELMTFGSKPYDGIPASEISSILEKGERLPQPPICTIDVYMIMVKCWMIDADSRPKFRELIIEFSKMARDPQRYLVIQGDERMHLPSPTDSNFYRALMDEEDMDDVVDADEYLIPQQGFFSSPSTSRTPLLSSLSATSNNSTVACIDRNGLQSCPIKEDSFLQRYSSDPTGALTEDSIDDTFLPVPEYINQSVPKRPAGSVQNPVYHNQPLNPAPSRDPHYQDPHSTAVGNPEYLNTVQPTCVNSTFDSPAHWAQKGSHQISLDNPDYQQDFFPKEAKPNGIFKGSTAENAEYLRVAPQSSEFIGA
Sequence of CtermHisTag-mEGFR Wild type (P00533 whole entry): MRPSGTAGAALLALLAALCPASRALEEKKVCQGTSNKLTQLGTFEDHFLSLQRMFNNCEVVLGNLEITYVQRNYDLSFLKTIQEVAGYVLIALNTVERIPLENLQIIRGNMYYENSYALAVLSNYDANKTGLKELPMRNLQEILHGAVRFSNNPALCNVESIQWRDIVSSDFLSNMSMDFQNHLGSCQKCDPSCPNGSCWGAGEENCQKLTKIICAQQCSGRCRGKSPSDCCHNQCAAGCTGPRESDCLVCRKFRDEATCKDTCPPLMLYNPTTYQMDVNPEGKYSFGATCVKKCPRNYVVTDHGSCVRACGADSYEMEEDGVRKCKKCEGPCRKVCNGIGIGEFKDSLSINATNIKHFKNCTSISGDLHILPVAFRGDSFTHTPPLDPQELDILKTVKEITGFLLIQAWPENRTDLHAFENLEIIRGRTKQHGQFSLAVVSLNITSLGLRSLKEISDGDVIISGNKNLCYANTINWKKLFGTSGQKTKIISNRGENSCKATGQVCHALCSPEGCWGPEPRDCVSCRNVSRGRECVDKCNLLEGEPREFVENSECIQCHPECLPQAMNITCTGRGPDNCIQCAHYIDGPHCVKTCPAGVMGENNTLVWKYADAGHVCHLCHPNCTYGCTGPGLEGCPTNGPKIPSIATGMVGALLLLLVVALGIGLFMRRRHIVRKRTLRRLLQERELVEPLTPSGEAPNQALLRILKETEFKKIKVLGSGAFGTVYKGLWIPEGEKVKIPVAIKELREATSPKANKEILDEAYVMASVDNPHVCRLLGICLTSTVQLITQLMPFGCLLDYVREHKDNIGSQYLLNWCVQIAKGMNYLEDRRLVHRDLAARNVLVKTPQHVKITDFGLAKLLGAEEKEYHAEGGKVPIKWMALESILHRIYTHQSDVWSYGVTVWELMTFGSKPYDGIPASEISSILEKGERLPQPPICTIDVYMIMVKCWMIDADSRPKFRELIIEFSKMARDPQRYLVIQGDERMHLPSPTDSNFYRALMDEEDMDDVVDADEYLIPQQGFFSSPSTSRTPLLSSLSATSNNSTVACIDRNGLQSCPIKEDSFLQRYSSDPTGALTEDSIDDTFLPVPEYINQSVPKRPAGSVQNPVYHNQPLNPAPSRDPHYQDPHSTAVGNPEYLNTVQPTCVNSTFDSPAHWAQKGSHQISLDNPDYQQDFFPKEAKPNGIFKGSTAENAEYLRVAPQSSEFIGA
T3 sequence (P00533 25-1210 T790M/C797S/L858R): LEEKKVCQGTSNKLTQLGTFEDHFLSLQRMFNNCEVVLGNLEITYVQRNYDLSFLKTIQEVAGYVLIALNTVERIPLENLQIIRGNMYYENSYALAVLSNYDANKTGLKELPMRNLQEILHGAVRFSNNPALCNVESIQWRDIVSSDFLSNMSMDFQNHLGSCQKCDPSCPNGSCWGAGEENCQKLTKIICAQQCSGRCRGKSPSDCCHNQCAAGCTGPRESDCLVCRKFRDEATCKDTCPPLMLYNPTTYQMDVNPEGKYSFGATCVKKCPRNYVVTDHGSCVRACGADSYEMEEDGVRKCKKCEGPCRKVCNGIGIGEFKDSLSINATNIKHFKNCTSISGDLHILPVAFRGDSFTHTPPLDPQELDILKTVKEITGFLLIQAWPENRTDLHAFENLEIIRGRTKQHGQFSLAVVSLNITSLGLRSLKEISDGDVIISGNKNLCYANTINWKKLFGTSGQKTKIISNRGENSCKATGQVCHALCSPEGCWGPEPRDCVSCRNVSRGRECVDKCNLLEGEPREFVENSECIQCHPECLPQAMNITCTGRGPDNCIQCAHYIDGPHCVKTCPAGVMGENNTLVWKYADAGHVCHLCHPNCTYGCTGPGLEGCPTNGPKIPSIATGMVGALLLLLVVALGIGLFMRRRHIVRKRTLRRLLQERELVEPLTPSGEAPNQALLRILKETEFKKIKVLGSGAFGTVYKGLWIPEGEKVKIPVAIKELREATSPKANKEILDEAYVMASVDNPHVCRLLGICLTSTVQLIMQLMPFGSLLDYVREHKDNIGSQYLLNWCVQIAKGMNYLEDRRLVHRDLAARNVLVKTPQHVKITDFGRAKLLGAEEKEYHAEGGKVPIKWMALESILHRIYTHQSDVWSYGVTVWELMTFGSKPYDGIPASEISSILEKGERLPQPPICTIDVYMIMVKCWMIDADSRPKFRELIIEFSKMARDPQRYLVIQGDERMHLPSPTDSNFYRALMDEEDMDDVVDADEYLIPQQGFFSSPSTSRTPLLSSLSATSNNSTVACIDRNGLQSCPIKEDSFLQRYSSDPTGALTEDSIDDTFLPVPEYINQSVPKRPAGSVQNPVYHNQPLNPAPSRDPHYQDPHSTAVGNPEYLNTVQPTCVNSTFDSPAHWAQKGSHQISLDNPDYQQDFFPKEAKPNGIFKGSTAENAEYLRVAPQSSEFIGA
T2 sequence (P00533 25-1210): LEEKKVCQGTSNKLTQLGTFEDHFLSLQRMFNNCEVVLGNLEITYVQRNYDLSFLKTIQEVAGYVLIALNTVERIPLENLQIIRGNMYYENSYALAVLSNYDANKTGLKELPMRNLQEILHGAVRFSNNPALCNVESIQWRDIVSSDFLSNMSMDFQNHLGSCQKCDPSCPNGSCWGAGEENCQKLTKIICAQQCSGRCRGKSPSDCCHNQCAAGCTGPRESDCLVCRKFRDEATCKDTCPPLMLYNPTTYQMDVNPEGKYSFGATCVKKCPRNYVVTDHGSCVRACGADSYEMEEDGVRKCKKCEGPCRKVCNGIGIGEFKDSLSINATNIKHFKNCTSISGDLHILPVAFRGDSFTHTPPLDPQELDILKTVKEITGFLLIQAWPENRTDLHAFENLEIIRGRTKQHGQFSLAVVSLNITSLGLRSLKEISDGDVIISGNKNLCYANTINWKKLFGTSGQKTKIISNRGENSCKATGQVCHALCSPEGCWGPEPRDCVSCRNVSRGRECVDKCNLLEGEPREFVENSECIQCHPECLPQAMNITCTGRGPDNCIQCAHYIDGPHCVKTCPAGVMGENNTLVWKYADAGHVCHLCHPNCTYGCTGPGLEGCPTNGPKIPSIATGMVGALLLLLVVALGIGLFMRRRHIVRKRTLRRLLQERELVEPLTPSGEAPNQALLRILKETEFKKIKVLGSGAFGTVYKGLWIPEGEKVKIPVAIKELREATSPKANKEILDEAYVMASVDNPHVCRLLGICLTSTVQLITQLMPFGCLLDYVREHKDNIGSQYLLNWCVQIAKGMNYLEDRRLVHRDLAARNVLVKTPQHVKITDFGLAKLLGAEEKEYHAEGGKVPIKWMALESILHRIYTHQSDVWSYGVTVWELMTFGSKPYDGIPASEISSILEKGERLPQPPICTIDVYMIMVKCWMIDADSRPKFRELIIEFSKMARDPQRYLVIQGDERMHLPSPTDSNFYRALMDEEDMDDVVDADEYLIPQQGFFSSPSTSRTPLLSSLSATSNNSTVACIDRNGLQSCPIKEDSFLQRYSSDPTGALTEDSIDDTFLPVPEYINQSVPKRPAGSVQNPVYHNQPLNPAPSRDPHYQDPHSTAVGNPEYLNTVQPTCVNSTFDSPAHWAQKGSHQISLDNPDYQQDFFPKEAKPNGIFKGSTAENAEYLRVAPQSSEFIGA

| SMILES | IC50 [1] [nM] | IC50 [2] [nM] | IC50 [3] [µM] | IC50 [4] [nM] |
| --- | --- | --- | --- | --- |
| C#Cc1c(C)c(=O)n(Cc2ccnn2C)c2nc(Nc3ccc(N4CCN(C)CC4)cc3)ncc12 [Example 112, 5-ethynyl-6-methyl-2-{[4-(4-methylpiperazin-1-yl)phenyl]amino}-8-[(2-methylpyrazol-3-yl)methyl]pyrido[2,3-d]pyrimidin-7-one] | 1000 to 10000 | 1000 to 3000 | > 3 | 1000 to 3000 |
| C#Cc1c(C)c(=O)n(Cc2ccno2)c2nc(Nc3ccc(N4CCN(C)CC4)cc3)ncc12 [Example 113, 5-ethynyl-6-methyl-2-{[4-(4-methylpiperazin-1-yl)phenyl]amino}-8-(1,2-oxazol-5-ylmethyl)pyrido[2,3-d]pyrimidin-7-one] | 1000 to 10000 | 1000 to 3000 | 1 to 3 | 1000 to 3000 |
| C#Cc1c(C)c(=O)n(Cc2ncco2)c2nc(Nc3ccc(N4CCN(C)CC4)cc3)ncc12 [Example 114, 5-ethynyl-6-methyl-2-{[4-(4-methylpiperazin-1-yl)phenyl]amino}-8-(1,3-oxazol-2-ylmethyl)pyrido[2,3-d]pyrimidin-7-one] | < 1000 | 1000 to 3000 | 1 to 3 | 1000 to 3000 |
| C#Cc1c(C)c(=O)n(Cc2cccnc2)c2nc(Nc3ccc(N4CCN(C)CC4)cc3)ncc12 [Example 115, 5-ethynyl-6-methyl-2-{[4-(4-methylpiperazin-1-yl)phenyl]amino}-8-(pyridin-3-ylmethyl)pyrido[2,3-d]pyrimidin-7-one] | < 1000 | 500 to 1000 | 1 to 3 | 1000 to 3000 |
| C#Cc1c(C)c(=O)n(Cc2cccnc2)c2nc(Nc3ccc(N4CCN(C)CC4)cc3)ncc12 [Example 116, 5-ethynyl-6-methyl-2-{[4-(4-methylpiperazin-1-yl)phenyl]amino}-8-(pyridin-3-ylmethyl)pyrido[2,3-d]pyrimidin-7-one] | 1000 to 10000 | > 3000 | 1 to 3 | > 3000 |
| C#Cc1cc(=O)n(C2CC(=O)N(C)C2)c2nc(Nc3ccc(N4CCN(C)CC4)cc3)ncc12 (stereo not shown) [Example 117, 4-(5-ethynyl-2-{[4-(4-methylpiperazin-1-yl)phenyl]amino}-7-oxopyrido[2,3-d]pyrimidin-8-yl)-1-methylpyrrolidin-2-one] | > 10000 | > 3000 | > 3 | > 3000 |
| C#Cc1cc(=O)n(Cc2ccn(C)n2)c2nc(Nc3ccc(N4CCN(C)CC4)cc3)ncc12 [Example 118, 5-ethynyl-2-{[4-(4-methylpiperazin-1-yl)phenyl]amino}-8-[(1-methylpyrazol-3-yl)methyl]pyrido[2,3-d]pyrimidin-7-one] | < 1000 | < 500 | 1 to 3 | < 500 |
| C#Cc1cc(=O)n(CC2CCNC2=O)c2nc(Nc3ccc(N4CCN(C)CC4)cc3)ncc12 (stereo not shown) [Example 119, 3-[(5-ethynyl-2-{[4-(4-methylpiperazin-1-yl)phenyl]amino}-7-oxopyrido[2,3-d]pyrimidin-8-yl)methyl]pyrrolidin-2-one] | > 10000 | 500 to 1000 | > 3 | 500 to 1000 |
| C#Cc1cc(=O)[nH]c2nc(Nc3ccccc3OC)ncc12 [Example 120, 5-ethynyl-2-((2-methoxyphenyl)amino)pyrido[2,3-d]pyrimidin-7(8H)-one] | 1000 to 10000 | > 3000 | > 3 | > 3000 |
| C#Cc1c(-c2ccccc2Cl)c(=O)n(C)c2nc(Nc3ccc(N(C)CCN(C)C)cc3)ncc12 [Example 126] | < 1000 | 1000 to 3000 | 1 to 3 | > 3000 |
| C#Cc1c(-c2ccccc2Cl)c(=O)n(C)c2nc(Nc3ccc(N4CCN(C)CC4)cc3OC)ncc12 [Example 127, 6-(2-chlorophenyl)-5-ethynyl-2-{[2-methoxy-4-(4-methylpiperazin-1-yl)phenyl]amino}-8-methylpyrido[2,3-d]pyrimidin-7-one] | < 1000 | 500 to 1000 | 0.5 to 1 | 1000 to 3000 |
| C#Cc1c(-c2ccccc2Cl)c(=O)n(C)c2nc(Nc3ccc(N4CCN(C)CC4)cc3)ncc12 [Example 128, 6-(2-chlorophenyl)-5-ethynyl-8-methyl-2-{[4-(4-methylpiperazin-1-yl)phenyl]amino}pyrido[2,3-d]pyrimidin-7-one] | < 1000 | 500 to 1000 | < 0.5 | > 3000 |

Continued, values first:

| IC50 [1] [nM] | IC50 [2] [nM] | IC50 [3] [µM] | IC50 [4] [nM] | SMILES |
| --- | --- | --- | --- | --- |
| < 1000 | 500 to 1000 | 0.5 to 1 | > 3000 | C#Cc1c(-c2ccccc2Cl)c(=O)n(C)c2nc(Nc3ccc(OCCN(C)C)cc3)ncc12 [Example 129, 6-(2-chlorophenyl)-2-({4-[2-(dimethylamino)ethoxy]phenyl}amino)-5-ethynyl-8-methylpyrido[2,3-d]pyrimidin-7-one] |
| 1000 to 10000 | 1000 to 3000 | > 3 | > 3000 | C#Cc1c(-c2ccccc2Cl)c(=O)n(C)c2nc(Nc3cccc(OC)c3)ncc12 [Example 131, 6-(2-chlorophenyl)-5-ethynyl-2-[(3-methoxyphenyl)amino]-8-methylpyrido[2,3-]pyrimidin-7-one] |
| < 1000 | 500 to 1000 | 1 to 3 | 1000 to 3000 | C#Cc1c(-c2ccccc2Cl)c(=O)n(C)c2nc(Nc3cccc(CO)c3)ncc12 [Example 132, 6-(2-chlorophenyl)-5-ethynyl-2-{[3-(hydroxymethyl)phenyl]amino}-8-methylpyrido[2,3-]pyrimidin-7-one] |
| > 10000 | > 3000 | > 3 | > 3000 | C#Cc1c(-c2c(Cl)cccc2Cl)c(=O)n(C)c2nc(Nc3ccc(N(C)CCN(C)C)cc3)ncc12 [Example 134, 6-(2,6-dichlorophenyl)-2-[(4-{[2-(dimethylamino)ethyl](methyl)amino}phenyl)amino]-5-ethynyl-8-methylpyrido[2,3-d]pyrimidin-7-one] |
| < 1000 | 500 to 1000 | 1 to 3 | 500 to 1000 | C#Cc1c(-c2cccc(F)c2Cl)c(=O)n(C)c2nc(Nc3ccc(N(C)CCN(C)C)cc3)ncc12 [Example 135, 6-(2-chloro-3-fluorophenyl)-2-[(4-{[2-(dimethylamino)ethyl](methyl)amino}phenyl)amino]-5-ethynyl-8-methylpyrido[2,3-d]pyrimidin-7-one] |
| < 1000 | < 500 | 1 to 3 | 500 to 1000 | C#Cc1c(-c2cc(OC)ccc2Cl)c(=O)n(C)c2nc(Nc3ccc(N(C)CCN(C)C)cc3)ncc12 [Example 136, 6-(2-chloro-5-methoxyphenyl)-2-[(4-{[2-(dimethylamino)ethyl](methyl)amino}phenyl)amino]-5-ethynyl-8-methylpyrido[2,3-d]pyrimidin-7-one] |
| < 1000 | 500 to 1000 | 1 to 3 | < 500 | C#Cc1c(-c2cc(F)ccc2Cl)c(=O)n(C)c2nc(Nc3ccc(N(C)CCN(C)C)cc3)ncc12 [Example 137, 6-(2-chloro-5-fluorophenyl)-2-[(4-{[2-(dimethylamino)ethyl](methyl)amino}phenyl)amino]-5-ethynyl-8-methylpyrido[2,3-d]pyrimidin-7-one] |
